Among the data in ChEMBL document CHEMBL1122119 are Cyclase stimulation values, retold here.

Assay [1] concerns the target T1, Adenylate cyclase (Rattus norvegicus) (UniProt D4A3N4+P26770+Q04400+P26769+Q03343+P40146+Q8CFM9+P21932). The assay is described as follows: Ability (50 uM) to stimulate dopamine sensitive adenylate cyclase from rat corpus striatum in the presence of excess ATP. The assay is classed as functional.
The target in assay [2] is T1, Adenylate cyclase (Rattus norvegicus). The experiment in a line: Ability (250 uM) to stimulate dopamine sensitive adenylate cyclase from rat corpus striatum in the presence of excess ATP. It counts as functional.

SMILES strings stand for the structures.

Turning to `NCCc1ccc(O)c(O)c1`, the Cyclase stimulation in assay [1] is 58%. `CN1CCc2cc(O)cc3c2[C@@H]1Cc1ccc(O)c(O)c1-3`: the Cyclase stimulation in assay [2] worked out at 9%. As to `CN1CCc2cccc3c2[C@H]1Cc1ccc(O)c(O)c1-3`, in assay [1], the Cyclase stimulation came out at 48%. `CN1CCc2cc(O)cc3c2[C@H]1Cc1ccc(O)c(O)c1-3`: the Cyclase stimulation in assay [2] stood at 59%.
